Activity calls are given as the source filed them.
Assays:
Cytochrome P450 2C19 = Cytochrome P450 2C19 (Homo sapiens, UniProt P33261); assay: Cytochrome panel assay with activity outcomes. Panel member name: p450-cyp2c19 Compounds with AC50 equal or less than 10 uM are considered active; type: functional
[1] = molecular target: T1, Heat shock factor protein 1 (Mus musculus, UniProt P38532); assay: decrease of HSF1-responsive luciferase luminescence – cell-based, NIH3T3, dose retest, confirmation (AID 2382); type: functional;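 also: NIH3T3 fibroblasts with HSF1-driven luciferase reporter stressed by proteasome inhibitor MG132; luminescence from HSF1-driven luciferase expression after 8 hours of MG132 stress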
T1 sequence (P38532 whole entry): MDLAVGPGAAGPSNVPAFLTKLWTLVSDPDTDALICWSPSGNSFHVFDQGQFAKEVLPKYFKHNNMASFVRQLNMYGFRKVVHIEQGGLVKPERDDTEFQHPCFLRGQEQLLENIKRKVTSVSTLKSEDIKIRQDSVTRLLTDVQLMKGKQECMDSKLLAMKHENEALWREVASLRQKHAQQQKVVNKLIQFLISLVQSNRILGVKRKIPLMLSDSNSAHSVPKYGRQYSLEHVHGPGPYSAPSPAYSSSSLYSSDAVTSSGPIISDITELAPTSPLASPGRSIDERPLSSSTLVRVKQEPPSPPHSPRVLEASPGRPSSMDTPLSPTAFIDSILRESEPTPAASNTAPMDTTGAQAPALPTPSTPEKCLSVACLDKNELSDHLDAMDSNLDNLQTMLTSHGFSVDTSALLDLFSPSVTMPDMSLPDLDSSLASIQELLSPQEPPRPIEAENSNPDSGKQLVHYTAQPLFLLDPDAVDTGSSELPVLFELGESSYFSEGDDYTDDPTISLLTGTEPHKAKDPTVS

[2] = molecular target: T2, Replicative DNA helicase DnaB (Mycobacterium tuberculosis, UniProt P9WMR3); assay: DnaB intein splicing inhibitors, dose response, biochemical, cell-free fluorescence (AID 449749); type: functional
T2 sequence (P9WMR3 whole entry): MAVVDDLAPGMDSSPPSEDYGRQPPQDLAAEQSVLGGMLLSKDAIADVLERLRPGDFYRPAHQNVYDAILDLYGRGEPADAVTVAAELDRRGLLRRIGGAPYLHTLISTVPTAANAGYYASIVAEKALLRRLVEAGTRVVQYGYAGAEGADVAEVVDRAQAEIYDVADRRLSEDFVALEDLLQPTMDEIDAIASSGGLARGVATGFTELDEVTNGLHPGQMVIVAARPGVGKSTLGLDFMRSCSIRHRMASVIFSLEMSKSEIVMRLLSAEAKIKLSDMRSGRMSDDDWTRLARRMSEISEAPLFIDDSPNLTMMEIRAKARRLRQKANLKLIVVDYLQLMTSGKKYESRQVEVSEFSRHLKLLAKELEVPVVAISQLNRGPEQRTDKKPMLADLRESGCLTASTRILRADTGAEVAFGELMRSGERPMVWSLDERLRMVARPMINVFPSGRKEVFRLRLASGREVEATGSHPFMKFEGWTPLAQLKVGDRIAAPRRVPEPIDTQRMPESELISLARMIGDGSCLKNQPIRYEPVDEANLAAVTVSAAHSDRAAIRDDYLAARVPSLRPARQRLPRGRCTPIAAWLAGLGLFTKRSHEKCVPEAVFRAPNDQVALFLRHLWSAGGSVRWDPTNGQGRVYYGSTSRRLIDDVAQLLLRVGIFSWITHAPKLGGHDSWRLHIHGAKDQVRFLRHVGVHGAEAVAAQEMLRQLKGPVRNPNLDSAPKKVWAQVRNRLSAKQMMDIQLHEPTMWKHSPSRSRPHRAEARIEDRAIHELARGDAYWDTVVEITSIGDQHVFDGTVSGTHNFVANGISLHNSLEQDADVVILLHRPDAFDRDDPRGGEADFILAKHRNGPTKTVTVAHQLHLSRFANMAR

Protein RecA = molecular target: T3, Protein RecA (Mycobacterium tuberculosis, UniProt P9WHJ3); assay: Fluorescence Cell-Free Homogeneous Dose Retest to Identify Inhibitors of RecA-Intein Splicing Activity. [Related pubchem assays (depositor defined):AID2097, AID2223, AID489010, AID492950]; type: functional
T3 sequence (P9WHJ3 whole entry): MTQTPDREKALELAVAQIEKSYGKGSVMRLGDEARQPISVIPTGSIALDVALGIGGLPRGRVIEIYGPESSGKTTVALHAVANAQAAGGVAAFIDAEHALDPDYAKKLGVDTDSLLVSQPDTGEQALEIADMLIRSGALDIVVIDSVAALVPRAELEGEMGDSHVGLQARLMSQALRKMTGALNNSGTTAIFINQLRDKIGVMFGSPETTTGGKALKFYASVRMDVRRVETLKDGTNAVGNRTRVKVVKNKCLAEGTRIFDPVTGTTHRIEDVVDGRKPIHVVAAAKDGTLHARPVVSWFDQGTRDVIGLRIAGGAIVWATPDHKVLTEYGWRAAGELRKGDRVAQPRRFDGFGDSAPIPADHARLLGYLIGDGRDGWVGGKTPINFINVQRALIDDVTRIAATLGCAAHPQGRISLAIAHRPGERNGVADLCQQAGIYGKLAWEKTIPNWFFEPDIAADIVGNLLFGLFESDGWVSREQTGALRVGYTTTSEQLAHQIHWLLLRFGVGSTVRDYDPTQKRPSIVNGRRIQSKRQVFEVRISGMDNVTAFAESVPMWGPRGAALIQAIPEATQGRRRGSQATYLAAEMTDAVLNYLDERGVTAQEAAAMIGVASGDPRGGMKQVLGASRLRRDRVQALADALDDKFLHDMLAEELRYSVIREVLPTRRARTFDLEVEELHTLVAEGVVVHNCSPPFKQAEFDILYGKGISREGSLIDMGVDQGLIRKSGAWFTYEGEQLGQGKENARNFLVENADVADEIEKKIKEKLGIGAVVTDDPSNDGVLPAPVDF

[3] = molecular target: FAD-linked sulfhydryl oxidase ALR (Homo sapiens, UniProt P55789); assay: ALR-catalysed DTT oxidation blockers – biochemical, H2O2 detection, luminescence, cherry-pick, dose response (AID 493248)
FAD-linked sulfhydryl oxidase ALR, sequence (P55789 whole entry): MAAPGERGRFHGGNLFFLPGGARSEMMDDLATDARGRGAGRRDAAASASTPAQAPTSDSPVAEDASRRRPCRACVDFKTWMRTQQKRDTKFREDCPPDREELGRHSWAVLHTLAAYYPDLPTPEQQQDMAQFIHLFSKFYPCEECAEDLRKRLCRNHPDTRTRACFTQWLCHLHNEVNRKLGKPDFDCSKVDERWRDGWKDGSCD

[4] = NIH-3T3 fibroblast cytotoxicity, dose response, cytotoxicity control, cell-based, fluorescence, Alamar Blue, secondary assay (AID 2327); type: functional;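 also: NIH-3T3 mouse fibroblasts cultured with fluconazole at 8 µg/mL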
[5] = fluconazole-exposed Candida albicans growth modulators – fluorescence, retest, confirmation (AID 2467); type: functional, cell-based
[6] = molecular target: T4, Rac GTPase-activating protein 1 (Homo sapiens, UniProt Q9H0H5); assay: blockers of MgcRacGAP-driven Rac1 GTP hydrolysis – biochemical, ADP Hunter fluorescence, primary and confirmatory, confirmation (AID 624330); type: functional
T4 sequence (Q9H0H5 whole entry): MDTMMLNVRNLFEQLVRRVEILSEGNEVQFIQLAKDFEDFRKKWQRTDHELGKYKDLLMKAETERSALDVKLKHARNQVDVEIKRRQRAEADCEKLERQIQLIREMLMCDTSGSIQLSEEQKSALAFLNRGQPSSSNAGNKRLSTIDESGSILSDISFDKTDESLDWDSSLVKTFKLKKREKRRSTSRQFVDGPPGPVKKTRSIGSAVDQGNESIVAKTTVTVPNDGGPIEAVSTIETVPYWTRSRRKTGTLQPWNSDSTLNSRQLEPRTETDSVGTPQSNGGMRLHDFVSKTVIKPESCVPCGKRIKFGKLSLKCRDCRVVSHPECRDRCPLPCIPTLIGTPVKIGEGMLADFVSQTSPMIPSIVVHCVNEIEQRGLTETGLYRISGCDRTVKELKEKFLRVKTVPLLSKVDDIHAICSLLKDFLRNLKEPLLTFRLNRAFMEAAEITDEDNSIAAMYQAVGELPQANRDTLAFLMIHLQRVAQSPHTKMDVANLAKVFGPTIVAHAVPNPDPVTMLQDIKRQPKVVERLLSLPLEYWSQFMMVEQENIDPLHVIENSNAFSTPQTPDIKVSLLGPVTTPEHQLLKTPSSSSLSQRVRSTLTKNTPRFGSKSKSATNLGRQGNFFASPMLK

Cytochrome P450 2C9 = Cytochrome P450 2C9 (Homo sapiens, UniProt P11712)
Cytochrome P450 2C9, sequence (P11712 whole entry): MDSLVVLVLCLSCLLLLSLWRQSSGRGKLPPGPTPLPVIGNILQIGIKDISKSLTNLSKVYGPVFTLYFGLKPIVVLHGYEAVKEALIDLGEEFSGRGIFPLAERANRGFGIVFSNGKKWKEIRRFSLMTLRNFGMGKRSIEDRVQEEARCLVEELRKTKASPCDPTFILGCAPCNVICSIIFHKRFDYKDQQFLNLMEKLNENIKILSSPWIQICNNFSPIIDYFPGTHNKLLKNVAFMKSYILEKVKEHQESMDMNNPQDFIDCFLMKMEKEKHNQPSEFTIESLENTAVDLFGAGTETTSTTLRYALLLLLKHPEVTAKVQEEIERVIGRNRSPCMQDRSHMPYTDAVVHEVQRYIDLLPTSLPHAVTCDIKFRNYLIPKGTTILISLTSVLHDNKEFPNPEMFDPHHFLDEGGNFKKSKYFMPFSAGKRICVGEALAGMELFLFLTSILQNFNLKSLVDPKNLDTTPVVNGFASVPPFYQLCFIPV

[7] = reduction of Shn3 3'UTR-driven luciferase in osteoblasts – cell-based, Clone20 osteoblasts, firefly luciferase, cherry-picked, dose response (AID 624132); type: functional;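 also: firefly luciferase luminescence from reporter carrying the Shn3 3'UTR in osteoblasts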

Cytochrome P450 2C19, sequence (P33261 whole entry): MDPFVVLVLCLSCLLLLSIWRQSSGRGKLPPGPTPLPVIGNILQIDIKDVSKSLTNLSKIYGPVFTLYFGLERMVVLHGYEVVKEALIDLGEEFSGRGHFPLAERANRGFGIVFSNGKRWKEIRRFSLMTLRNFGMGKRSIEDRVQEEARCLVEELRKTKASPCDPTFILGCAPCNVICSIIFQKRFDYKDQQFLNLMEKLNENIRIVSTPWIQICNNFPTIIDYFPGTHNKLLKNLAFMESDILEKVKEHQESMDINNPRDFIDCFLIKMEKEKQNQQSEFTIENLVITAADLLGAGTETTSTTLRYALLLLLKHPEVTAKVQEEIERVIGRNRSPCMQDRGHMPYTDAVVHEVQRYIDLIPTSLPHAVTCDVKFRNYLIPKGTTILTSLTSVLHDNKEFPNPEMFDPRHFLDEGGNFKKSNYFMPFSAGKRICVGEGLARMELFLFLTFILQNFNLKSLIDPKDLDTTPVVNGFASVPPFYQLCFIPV

## Cc1cc(=O)oc(C)c1C(=O)NCc1ccccc1
Cytochrome P450 2C19; read-out: AC50
  AC50: 39.8 µM (inconclusive)

## Cc1ccc(NC(=O)CCN2C(=O)C3CCCCC3C2=O)cc1[N+](=O)[O-] (stereo not given)
[1]
  EC50: > 195 µM (not active)

## COc1nc(NC(C)C)nc(N(C#N)CN2C(=O)c3ccccc3S2(=O)=O)n1
[2]
  AC50: 24.4 µM (active)
Protein RecA
  EC50: 26.4 µM (inconclusive)

## Cc1ccc(S(=O)(=O)c2ccc(Oc3ccccc3)cc2)cc1
[1]
  EC50: 21.5 µM (active)

## N=C(NC(=O)c1ccc(Cl)cc1)Nc1nc2ccccc2o1
[1]
  EC50: > 195 µM (not active)

## CCS(=O)(=O)c1nc(S(=O)(=O)c2ccc(C)cc2)c(N2CCC(C)CC2)s1
[1]
  EC50: > 195 µM (not active)

## O=C(CNC1=NCCC1)c1ccc(Cl)cc1
[2]
  AC50: 127 µM (active)
Protein RecA
  EC50: 23.1 µM (active)

## O=C(CN1CCN(c2ccccc2O)CC1)Nc1cccnc1Cl
[3]
  AC50: 2.17 µM (active)

## Cc1ccc(NNC(=O)c2ccno2)cc1C
[4]
  EC50: > 160 µM (inactive)
[5]
  EC50: 763 nM (active)
[3]
  AC50: 0.439 µM (active)

## CN(CC(=O)Nc1ccccc1Br)C(=O)c1cccn1C
[1]
  EC50: > 195 µM (not active)

## CC(=O)Nc1ccc(S(=O)(=O)NC(C)C(=O)NCCc2ccc(F)cc2)cc1 (stereo not given)
[3]
  AC50: 0.031 µM (active)

## CC(=O)N1CC[n+]2c(-c3ccc(Cl)cc3)csc21
[3]
  AC50: 1.88 µM (active)

## CN(C)NC(=O)c1ccsc1NC(=O)c1ccc(S(=O)(=O)N2CCCC2)cc1
[3]
  AC50: 0.835 µM (active)

## C/C(=C\c1ccc(N)cc1)c1nc2ccccc2[nH]1
[3]
  AC50: 0.321 µM (active)

## O=C(NN=Cc1ccc(O)cc1)c1cc[n+](Cc2ccccc2)cc1
[3]
  AC50: 2.05 µM (active)
[6]
  IC50: 137 µM (active)

## COc1cccc(NC(=S)N(CCC(C)C)C2CCN(C(C)=O)CC2)c1
[1]
  EC50: > 195 µM (not active)

## COc1ccccc1/C=C/C1(C(=O)NC2CCCC2)CC(=O)N1c1ccc(C)cc1 (stereo not given)
[2]
  AC50: 9.29 µM (active)
Protein RecA
  EC50: 8.52 µM (active)

## COc1ccc2nc(O)c(CN(Cc3cccs3)S(=O)(=O)c3c(C)ccc4nsnc34)cc2c1
[1]
  EC50: 0.503 µM (active)

## CCS(=O)(=O)N1CCC(C(=O)NCc2cccnc2)CC1
Cytochrome P450 2C19; read-out: AC50
  AC50: 22.4 µM (inconclusive)
Cytochrome P450 2C9
  AC50: 11.2 µM (inconclusive)

## Cc1cc(N=Nc2ccc(Cl)cc2)cc(CN2CCCC2)c1O
[1]
  EC50: > 195 µM (not active)

## CC(=O)c1cccc(NC(=O)CSc2ncc(C(=O)Nc3ccccc3)c(=O)n2C)c1
[2]
  AC50: > 380 µM (inconclusive)
Protein RecA
  EC50: 1.21 µM (active)

## CCOC(=O)N1CCN(C(=O)CSCc2ccc(Cl)cc2)CC1
Cytochrome P450 2C19; read-out: AC50
  AC50: 17.8 µM (inconclusive)

## O=C(Cc1ccccc1F)Nc1nc2ccccc2[nH]1
[2]
  AC50: 0.0489 µM (inconclusive)
Protein RecA
  EC50: > 380 µM (inconclusive)

## CCOC(=O)C(C)c1ccc2cc(OC)ccc2c1 (stereo not given)
[1]
  EC50: > 195 µM (not active)

## CC(C)NS(=O)(=O)c1ccc(OCC(=O)N2CCCC2)c(Cl)c1
[1]
  EC50: > 195 µM (not active)

## CN(C)c1ccc(NC(=O)CN2CCc3ccccc3C2)cc1
[3]
  AC50: 2.23 µM (active)

## Fc1ccc(Sc2nc(-c3ccccc3)nnc2C(F)(F)F)cc1
[2]
  AC50: 1.45 µM (active)
Protein RecA
  EC50: 0.66 µM (active)

## COc1ccc(C(=O)Nc2ccncc2)cc1[N+](=O)[O-]
[2]
  AC50: > 380 µM (inactive)
Protein RecA
  EC50: > 380 µM (inactive)

## O=C(c1ccc2c(c1)OCO2)N1CCC2(CC1)OCCO2
[1]
  EC50: > 195 µM (not active)

## CCSc1nnc(NC(=O)c2cccc(S(=O)(=O)N(C)c3ccccc3)c2)s1
[3]
  AC50: 2.75 µM (active)

## CC(NS(C)(=O)=O)C(c1cccs1)N1CCN(c2ccccc2)CC1 (stereo not given)
[3]
  AC50: 2.93 µM (active)

## Cc1ccc(C(c2c(C)n[nH]c2O)c2c(C)n[nH]c2O)cc1[N+](=O)[O-]
[2]
  AC50: 0.442 µM (active)
Protein RecA
  EC50: 0.195 µM (active)

## O=C1CCc2cccc(O)c2N1
[7]
  AC50: 12.2 µM (active)

## CCc1n[nH]c2c1C(c1ccsc1)C(C#N)=C(N)O2 (stereo not given)
[2]
  AC50: 14.5 µM (active)
Protein RecA
  EC50: 9.87 µM (active)

## CCC(=O)Oc1oc(-c2ccccc2)nc1/C=N/c1ccccc1OC
[1]
  EC50: 10.3 µM (active)

## Cn1ccnc1 [1-METHYLIMIDAZOLE]
Cytochrome P450 2C19
  AC50: inconclusive

## O=C(O)c1c2ccccc2cc2ccccc12 [ANTHRACENE-9-CARBOXYLIC ACID]
Cytochrome P450 2C19; read-out: AC50
  AC50: 25.1 µM (inconclusive)
